This assay addresses T1, Dihydrofolate reductase (Homo sapiens, UniProt P00374).
T1 sequence (P00374 whole entry): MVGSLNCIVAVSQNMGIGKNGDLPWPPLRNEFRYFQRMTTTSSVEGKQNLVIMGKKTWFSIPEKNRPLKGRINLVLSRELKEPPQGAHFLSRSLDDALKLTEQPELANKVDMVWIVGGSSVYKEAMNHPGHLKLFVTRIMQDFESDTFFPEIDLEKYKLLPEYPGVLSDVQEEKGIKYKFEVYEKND

The structures appear in SMILES notation.

A word on the IC50: it is the concentration that inhibits the measured activity by half. For the compound `CCc1nc(N)nc(N)c1C#CCc1cccc(OC)c1OC`, half-maximal inhibition (IC50) required 130 nM.
To `CCc1nc(N)nc(N)c1C#CCc1ccccc1` belongs 360 nM.
